According to patent US8906928B2, “Substituted pyrazolo-pyrrolo-pyridine-dione compounds” (ArQule, Inc., priority 2009, dated 2014):

How the values were obtained:
Assay type in all cases: cell-based
[1] = test system: DLD-1; assay: MTS assay (cell growth inhibition), DLD-1; settings: DLD-1 cells, 72 hours incubation with test compound; concentration not given
Protocol: (§1) Cells were maintained at 37° C., 5% CO2 in DMEM media supplemented with 1% fetal bovine serum, penicillin/streptomycin and fungizone (Invitrogen). Cells were seeded into 96-well tissue culture plates at 3000 per well and cultured at 37° C. for 18 hours. Test compounds were dissolved and diluted to 300× in DMSO then diluted 1:40 in DMEM. Cells were incubated with test compounds for 72 hours followed by incubation with tetrazolium compound (3-(4,5-dimethylthiazol-2-yl)-5-(3-carboxymethoxyphenyl)-2-(4-sulfophenyl)-2H-tetrazolium, inner salt; MTS) and the electron coupling reagent, phenazine methosulfate (PMS) for 4 hours. […] The ability of compounds to inhibit cell growth in this assay is correlated with the reduction of dehydrogenase enzyme activity found in metabolically active cells. The measurement of the absorbance of the formazan was assessed using an ENVISION™ (Perkin Elmer) microplate reader at 492 nm. The calculated IC50 value is the concentration of the test compound that causes a 50% decrease in the absorbance.

[2] = test system: MDA-MB; assay: MTS assay (cell growth inhibition), MDA-MB; settings: MDA-MB cells, 72 hours incubation with test compound; concentration not given
Protocol: as §1

[3] = test system: PC-3; assay: MTS assay (cell growth inhibition), PC-3; settings: PC-3 cells, 72 hours incubation with test compound; concentration not given
Protocol: as §1

[4] = test system: Kato III; assay: MTS assay (cell growth inhibition), Kato III; settings: Kato III cells, 72 hours incubation with test compound; concentration not given
Protocol: as §1

[5] = test system: NCI-H1299; assay: MTS assay (cell growth inhibition), NCI-H1299; settings: NCI-H1299 cells, 72 hours incubation with test compound; concentration not given
Protocol: as §1

[6] = test system: PACA-2; assay: MTS assay (cell growth inhibition), PACA-2; settings: PACA-2 cells, 72 hours incubation with test compound; concentration not given
Protocol: as §1

For `O=C1c2cnc3[nH]nc(-c4cccc(F)c4)c3c2C(=O)N1CCc1ccccc1` [Example 165, 1-(3-fluorophenyl)-7-(2-phenylethyl)pyrazolo[3,4-b]pyrrolo[3,4-d]pyridine-6,8(3H,7H)-dione], the “MTS CELL KILL DATA (% INHIBITION) DLD-1” value [1] was “A (A = 80-100% INHIBITION)”, the “MTS CELL KILL DATA (% INHIBITION) MDA-MB” value [2] was “A (A = 80-100% INHIBITION)” and the “MTS CELL KILL DATA (% INHIBITION) PC-3” value [3] was “A (A = 80-100% INHIBITION)”. For the same compound, the “MTS CELL KILL DATA (% INHIBITION) Kato III” value [4] was “A (A = 80-100% INHIBITION)”, the “MTS CELL KILL DATA (% INHIBITION) NCI-H1299” value [5] was “C (C = <50% INHIBITION)” and the “MTS CELL KILL DATA (% INHIBITION) PACA-2” value [6] was “A (A = 80-100% INHIBITION)”.

With `CC(CN1C(=O)c2cnc3[nH]ncc3c2C1=O)c1ccccc1` (stereo not drawn) [Example 96, 7-(2-phenylpropyl)pyrazolo[3,4-b]pyrrolo[3,4-d]pyridine-6,8(3H,7H)-dione] the “MTS CELL KILL DATA (% INHIBITION) DLD-1” value [1] was “C (C = <50% INHIBITION)”, the “MTS CELL KILL DATA (% INHIBITION) MDA-MB” value [2] was “C (C = <50% INHIBITION)” and the “MTS CELL KILL DATA (% INHIBITION) PC-3” value [3] was “C (C = <50% INHIBITION)”. For the same compound, the “MTS CELL KILL DATA (% INHIBITION) Kato III” value [4] was “C (C = <50% INHIBITION)”, the “MTS CELL KILL DATA (% INHIBITION) NCI-H1299” value [5] was “C (C = <50% INHIBITION)” and the “MTS CELL KILL DATA (% INHIBITION) PACA-2” value [6] was “C (C = <50% INHIBITION)”.

In the case of `CCCC(C)CCN1C(=O)c2cnc3[nH]ncc3c2C1=O` (stereo not drawn) [Example 114, 7-(3-methylhexyl)pyrazolo[3,4-b]pyrrolo[3,4-d]pyridine-6,8(3H,7H)-dione], the “MTS CELL KILL DATA (% INHIBITION) DLD-1” value [1] is reported as “C (C = <50% INHIBITION)”, the “MTS CELL KILL DATA (% INHIBITION) MDA-MB” value [2] is reported as “A (A = 80-100% INHIBITION)” and the “MTS CELL KILL DATA (% INHIBITION) PC-3” value [3] is reported as “B (B = 50-79% INHIBITION)”. For the same compound, the “MTS CELL KILL DATA (% INHIBITION) Kato III” value [4] was “C (C = <50% INHIBITION)”, the “MTS CELL KILL DATA (% INHIBITION) NCI-H1299” value [5] was “C (C = <50% INHIBITION)” and the “MTS CELL KILL DATA (% INHIBITION) PACA-2” value [6] was “C (C = <50% INHIBITION)”.

`CCCC(CCC)CN1C(=O)c2cnc3[nH]ncc3c2C1=O` [Example 63, 7-(2-propylpentyl)pyrazolo[3,4-b]pyrrolo[3,4-d]pyridine-6,8(3H,7H)-dione] was tested, and the “MTS CELL KILL DATA (% INHIBITION) DLD-1” value [1] was “C (C = <50% INHIBITION)”, the “MTS CELL KILL DATA (% INHIBITION) MDA-MB” value [2] was “A (A = 80-100% INHIBITION)” and the “MTS CELL KILL DATA (% INHIBITION) PC-3” value [3] was “A (A = 80-100% INHIBITION)”. For the same compound, the “MTS CELL KILL DATA (% INHIBITION) Kato III” value [4] was “C (C = <50% INHIBITION)”, the “MTS CELL KILL DATA (% INHIBITION) NCI-H1299” value [5] was “C (C = <50% INHIBITION)” and the “MTS CELL KILL DATA (% INHIBITION) PACA-2” value [6] was “A (A = 80-100% INHIBITION)”.

In the case of `O=C1c2cnc3[nH]ncc3c2C(=O)N1Cc1cc(Cl)ccc1Cl` [Example 61, 7-(2,5-dichlorobenzyl)pyrazolo[3,4-b]pyrrolo[3,4-d]pyridine-6,8(3H,7H)-dione], the “MTS CELL KILL DATA (% INHIBITION) DLD-1” value [1] is reported as “B (B = 50-79% INHIBITION)”, the “MTS CELL KILL DATA (% INHIBITION) MDA-MB” value [2] is reported as “A (A = 80-100% INHIBITION)” and the “MTS CELL KILL DATA (% INHIBITION) PC-3” value [3] is reported as “C (C = <50% INHIBITION)”. The “MTS CELL KILL DATA (% INHIBITION) Kato III” value [4] was “B (B = 50-79% INHIBITION)”, the “MTS CELL KILL DATA (% INHIBITION) NCI-H1299” value [5] was “C (C = <50% INHIBITION)” and the “MTS CELL KILL DATA (% INHIBITION) PACA-2” value [6] was “C (C = <50% INHIBITION)”.

`O=C1c2cnc3[nH]ncc3c2C(=O)N1Cc1cccnc1` [Example 38, 7-(pyridin-3-ylmethyl)pyrazolo[3,4-b]pyrrolo[3,4-d]pyridine-6,8(3H,7H)-dione] was tested, and the “MTS CELL KILL DATA (% INHIBITION) DLD-1” value [1] was “A (A = 80-100% INHIBITION)”, the “MTS CELL KILL DATA (% INHIBITION) MDA-MB” value [2] was “A (A = 80-100% INHIBITION)” and the “MTS CELL KILL DATA (% INHIBITION) PC-3” value [3] was “C (C = <50% INHIBITION)”. For the same compound, the “MTS CELL KILL DATA (% INHIBITION) Kato III” value [4] was “A (A = 80-100% INHIBITION)”, the “MTS CELL KILL DATA (% INHIBITION) NCI-H1299” value [5] was “C (C = <50% INHIBITION)” and the “MTS CELL KILL DATA (% INHIBITION) PACA-2” value [6] was “A (A = 80-100% INHIBITION)”.

`O=C1c2cnc3[nH]nc(-c4cc5ccccc5o4)c3c2C(=O)N1CCc1ccccc1` [Example 158, 1-(1-benzofuran-2-yl)-7-(2-phenylethyl)pyrazolo[3,4-b]pyrrolo[3,4-d]pyridine-6,8(3H,7H)-dione] was tested, and the “MTS CELL KILL DATA (% INHIBITION) DLD-1” value [1] was “B (B = 50-79% INHIBITION)”, the “MTS CELL KILL DATA (% INHIBITION) MDA-MB” value [2] was “B (B = 50-79% INHIBITION)” and the “MTS CELL KILL DATA (% INHIBITION) PC-3” value [3] was “B (B = 50-79% INHIBITION)”. The “MTS CELL KILL DATA (% INHIBITION) Kato III” value [4] was “A (A = 80-100% INHIBITION)”, the “MTS CELL KILL DATA (% INHIBITION) NCI-H1299” value [5] was “A (A = 80-100% INHIBITION)” and the “MTS CELL KILL DATA (% INHIBITION) PACA-2” value [6] was “C (C = <50% INHIBITION)”.
